Results as given in ChEMBL document CHEMBL1126565, “Three-dimensional QSAR of human immunodeficiency virus (I) protease inhibitors. 1. A CoMFA study employing experimentally-determined alignment rules” (J Med Chem, 1993).
Starred links: 1 amine or outer side, 2 acyl side, 3 side chain; linkers in the order of their positions; H or OH if unused. Non-standard residues stand in square brackets, D forms with d. Residues, ends and D or L forms follow the SMILES beside them. ξ: configuration not given here. Phe(ψ(S)CH(OH)CH2N)Pro = O=C([C@@H]1CCCN1C[C@H](O)[C@H](Cc1ccccc1)N[*:1])[*:2]; Pheψ(R-CH(OH)CH2N)Pro = O=C([C@@H]1CCCN1C[C@@H](O)[C@H](Cc1ccccc1)N[*:1])[*:2]; Sta = CC(C)C[C@H](N)[C@@H](O)CC(=O)O; ξIva = CCC(C)(N)C(=O)O

target: Human immunodeficiency virus type 1 protease (Human immunodeficiency virus 1, UniProt Q72874); assay: Inhibitory potency against HIV-1 protease

IC50 | Compound
4.5 nM | CC[C@H](C)[C@H](NC(=O)[C@@H](C(C)C)C(O)C(O)[C@H](CC1CCCCC1)NC(=O)[C@H](Cc1c[nH]cn1)NC(=O)COc1ccccc1)C(=O)NCc1ccccn1 (stereo partly specified)
210 nM | CC(C)(C)NC(=O)[C@@H]1CCCN1C[C@H](O)[C@H](Cc1ccccc1)NC(=O)[C@H](CC(N)=O)NC(=O)OCc1ccccc1
3.4 nM | COC(=O)[C@@H](NC(=O)[C@H](CC(C)C)NC(=O)[C@@H]1CCCN1C[C@@H](O)[C@H](Cc1ccccc1)NC(=O)[C@H](CC(N)=O)NC(=O)[C@H](CC(C)C)NC(=O)[C@H](CO)NC(C)=O)C(C)C (Ac-SLN[Pheψ(R-CH(OH)CH2N)Pro]LV-OMe)
29 nM | CC(C)(C)N(C[C@@H](O)[C@H](Cc1ccccc1)NC(=O)[C@H](CC(N)=O)NC(=O)OCc1ccccc1)C(=O)NCC1CCCCC1
11.2 nM | CC[C@H](C)[C@H](NC(=O)[C@@H](CC(C)C)C(O)C(O)[C@H](CC1CCCCC1)NC(=O)[C@H](Cc1c[nH]cn1)NC(=O)COc1cccc2ccccc12)C(=O)NCc1ccccn1 (stereo partly specified)
11.2 nM | CC[C@H](C)[C@H](NC(=O)[C@@H](C(C)C)C(O)C(O)[C@H](Cc1c[nH]cn1)NC(=O)COc1ccccc1)C(=O)NCc1ccccn1 (stereo partly specified)
260 nM | CC(C)CNC(=O)N(C[C@@H](O)[C@H](Cc1ccccc1)NC(=O)[C@H](CC(N)=O)NC(=O)OCc1ccccc1)C(C)C
23 nM | CC(C)(C)OC(=O)[C@@H]1CCCN1C[C@H](O)[C@H](Cc1ccccc1)NC(=O)[C@H](CC(N)=O)NC(=O)c1ccc2ccccc2n1
65 nM | COC(=O)[C@@H](NC(=O)[C@H](CC(C)C)NC(=O)[C@@H]1CCCN1C[C@H](O)[C@H](Cc1ccccc1)NC(=O)[C@H](CC(N)=O)NC(=O)[C@H](CC(C)C)NC(=O)[C@H](CO)NC(C)=O)C(C)C (Ac-SLN[Phe(ψ(S)CH(OH)CH2N)Pro]LV-OMe)
2.3 nM | CC[C@H](C)[C@H](NC(=O)[C@@H]1CCCN1CC(O)[C@H](Cc1ccccc1)NC(=O)[C@H](CC(N)=O)NC(=O)c1ccc2ccccc2n1)C(=O)N[C@@H](Cc1ccccc1)C(=O)OC (stereo partly specified)
849 nM | COC(=O)[C@@H](NC(=O)[C@H](CC(C)C)NC(=O)[C@@H]1CCCN1C[C@H](O)[C@H](Cc1ccccc1)NC(=O)[C@H](CC(N)=O)NC(=O)OC(C)(C)C)C(C)C
6500 nM | CC(C)(C)OC(=O)[C@@H]1CCCN1C[C@H](O)[C@H](Cc1ccccc1)NC(=O)OCc1ccccc1
13 nM | CC(C)CCNC(=O)N(C[C@@H](O)[C@H](Cc1ccccc1)NC(=O)[C@H](CC(N)=O)NC(=O)OCc1ccccc1)C(C)(C)C
519 nM | CCCN(C[C@@H](O)[C@H](Cc1ccccc1)NC(=O)[C@H](CC(N)=O)NC(=O)OCc1ccccc1)C(=O)NCC(C)C
1500 nM | CC(C)CNC(=O)N(C)C[C@@H](O)[C@H](Cc1ccccc1)NC(=O)[C@H](CC(N)=O)NC(=O)OCc1ccccc1
2.7 nM | CC(C)(C)NC(=O)[C@@H]1C[C@@H]2CCCC[C@@H]2CN1C[C@H](O)[C@H](Cc1ccccc1)NC(=O)[C@H](CC(N)=O)NC(=O)OCc1ccccc1
12 nM | CSCC(NC(=O)c1ccc2ccccc2n1)C(=O)N[C@@H](Cc1ccccc1)[C@@H](O)CN1CCCCC1C(=O)NC(C)(C)C (stereo partly specified)
126 nM | CCCCN(C[C@@H](O)[C@H](Cc1ccccc1)NC(=O)[C@H](CC(N)=O)NC(=O)c1ccc2ccccc2n1)C(=O)NCC(C)C
316 nM | CC[C@H](C)[C@H](NC(=O)[C@@H]1CCCN1CC(O)[C@H](Cc1ccccc1)NC(=O)[C@H](CC(N)=O)NC(=O)OCc1ccccc1)C(=O)N[C@H](C(=O)OC)C(C)C (stereo partly specified)
5090 nM | C[C@H](NC(=O)N(C[C@@H](O)[C@H](Cc1ccccc1)NC(=O)[C@H](CC(N)=O)NC(=O)OCc1ccccc1)C(C)(C)C)c1ccccc1
316 nM | CC[C@H](C)[C@H](NC(=O)[C@@H]1C[C@@H]2CCCC[C@@H]2CN1C[C@@H](O)[C@H](Cc1ccccc1)NC(=O)[C@H](CC(N)=O)NC(=O)OCc1ccccc1)C(=O)N[C@H](C(=O)OC)C(C)C
6500 nM | C[C@@H](NC(=O)N(C[C@@H](O)[C@H](Cc1ccccc1)NC(=O)[C@H](CC(N)=O)NC(=O)OCc1ccccc1)C(C)(C)C)c1ccccc1
63 nM | CC[C@H](C)[C@H](NC(=O)[C@@H](C(C)C)C(O)C(O)[C@H](CC(C)C)NC(=O)[C@H](Cc1c[nH]cn1)NC(=O)[C@H](Cc1ccccc1)NC(=O)OC(C)(C)C)C(=O)NCc1ccccn1 (stereo partly specified)
6.01 nM | CC(C)CNC(=O)N(C[C@@H](O)[C@H](Cc1ccccc1)NC(=O)[C@H](CC(N)=O)NC(=O)c1ccc2ccccc2n1)C(C)(C)C
24.8 nM | CC[C@H](C)[C@H](NC(=O)[C@@H](C(C)C)C(O)C(O)[C@H](CC1CCCCC1)NC(=O)[C@H](Cc1c[nH]cn1)NC(=O)CN)C(=O)NCc1ccccn1 (stereo partly specified)
23 nM | CC(C)(C)NC(=O)C1CCCCN1C[C@H](O)[C@H](Cc1ccccc1)NC(=O)C(CC#N)NC(=O)OCc1ccccc1 (stereo partly specified)
470 nM | CC(C)(C)NC(=O)[C@@H]1CCCCN1C[C@@H](O)[C@H](Cc1ccccc1)NC(=O)[C@H](CC(N)=O)NC(=O)c1ccc2ccccc2n1

IC50 | Compound
13 nM | CC[C@H](C)[C@H](NC(=O)[C@@H]1CCCN1C[C@@H](O)[C@H](Cc1ccccc1)NC(=O)[C@H](CC(N)=O)NC(=O)OCc1ccccc1)C(=O)N[C@H](C(=O)OC)C(C)C
295 nM | CC(C)(C)OC(=O)N[C@@H](CC(N)=O)C(=O)N[C@@H](Cc1ccccc1)C(O)C[C@@H](Cc1ccccc1)C(=O)N[C@H]1c2ccccc2C[C@H]1O (stereo partly specified)
942 nM | CCCCN(C[C@@H](O)[C@H](Cc1ccccc1)NC(=O)[C@H](CC(N)=O)NC(=O)OCc1ccccc1)C(=O)NCC(C)C
809 nM | CC[C@H](C)CNC(=O)[C@@H](C(C)C)C(O)C(O)[C@H](CC(C)C)NC(=O)[C@H](Cc1c[nH]cn1)NC(=O)[C@H](Cc1ccccc1)NC(=O)OC(C)(C)C (stereo partly specified)
4 nM | CC[C@H](C)[C@H](NC(=O)[C@@H]1CCCN1C[C@@H](O)[C@H](Cc1ccccc1)NC(=O)[C@H](CC(N)=O)NC(=O)OCc1ccccc1)C(=O)N[C@@H](Cc1ccccc1)C(=O)OC
8.99 nM | CC[C@H](C)[C@H](NC(=O)[C@@H](C(C)C)C(O)C(O)[C@H](CC1CCCCC1)NC(=O)[C@H](Cc1c[nH]cn1)NC(=O)CO)C(=O)NCc1ccccn1 (stereo partly specified)
12000 nM | CC[C@H](C)[C@H](N)C(=O)N[C@@H](CCC(N)=O)C(=O)N[C@@H](CC(C)C)[C@@H](O)CC(=O)N[C@@H](CC(N)=O)C(=O)N[C@@H](Cc1ccccc1)C(=O)N[C@@H](CO)C(=O)O (H-IQ[Sta]NFS-OH)
27 nM | CC[C@H](C)[C@H](NC(=O)[C@@H](Cc1ccccc1)[C@@H](O)[C@H](O)[C@H](Cc1ccccc1)NC(=O)[C@H](Cc1c[nH]cn1)NC(=O)COc1cccc2ccccc12)C(=O)NCc1ccccn1
12000 nM | CCC(C)(NC(=O)[C@@H](NC(=O)[C@@H](NC(=O)C[C@H](O)[C@H](CC(C)C)NC(=O)[C@H](C)NC(=O)C[C@H](O)[C@@H](N)CC(C)C)C(C)C)C(C)C)C(=O)O (stereo partly specified) (H-[Sta]A[Sta]VV[ξIva]-OH)
58.5 nM | CC[C@H](C)[C@H](NC(=O)[C@@H](CC1CCCCC1)C(O)C(O)[C@H](CC1CCCCC1)NC(=O)[C@H](Cc1c[nH]cn1)NC(=O)COc1cccc2ccccc12)C(=O)NCc1ccccn1 (stereo partly specified)
3 nM | CC(C)(C)N(C[C@@H](O)[C@H](Cc1ccccc1)NC(=O)[C@H](CC(N)=O)NC(=O)c1ccc2ccccc2n1)C(=O)NCc1ccccc1
316 nM | CC(C)(C)NC(=O)[C@@H]1C[C@@H]2CCCC[C@@H]2CN1C[C@@H](O)[C@H](Cc1ccccc1)NC(=O)[C@H](CC(N)=O)NC(=O)OCc1ccccc1
35 nM | CC(C)CNC(=O)N(C[C@@H](O)[C@H](Cc1ccccc1)NC(=O)[C@H](CC(N)=O)NC(=O)OCc1ccccc1)C(C)(C)C
15.7 nM | CC[C@H](C)[C@H](NC(=O)[C@H](CC(C)C)C(O)C(O)[C@H](CC(C)C)NC(=O)[C@H](Cc1c[nH]cn1)NC(=O)COc1cccc2ccccc12)C(=O)NCc1ccccn1 (stereo partly specified)
330 nM | CCN(C[C@@H](O)[C@H](Cc1ccccc1)NC(=O)[C@H](CC(N)=O)NC(=O)OCc1ccccc1)C(=O)NCC(C)C
5 nM | CC(C)(C)N(C[C@@H](O)[C@H](Cc1ccccc1)NC(=O)[C@H](CC(N)=O)NC(=O)c1ccc2ccccc2n1)C(=O)NCC1CCCCC1
2 nM | CC(C)(C)NC(=O)C1CCCCN1C[C@H](O)[C@H](Cc1ccccc1)NC(=O)C(CC(N)=O)NC(=O)c1ccc2ccccc2n1 (stereo partly specified)
495 nM | CC[C@@H](C)[C@H](NC(=O)[C@@H](CC(C)C)C(O)C(O)[C@H](CC(C)C)NC(=O)C(Cc1c[nH]cn1)NC(=O)COc1cccc2ccccc12)C(=O)NCc1ccccn1 (stereo partly specified)
3 nM | CC(C)CCNC(=O)N(C[C@@H](O)[C@H](Cc1ccccc1)NC(=O)[C@H](CC(N)=O)NC(=O)c1ccc2ccccc2n1)C(C)(C)C
105 nM | CC(C)(C)N(C[C@@H](O)[C@H](Cc1ccccc1)NC(=O)[C@H](CC(N)=O)NC(=O)OCc1ccccc1)C(=O)NCc1ccncc1
49.5 nM | CC[C@H](C)[C@H](NC(=O)[C@@H](C(C)C)C(O)C(O)[C@H](CC1CCCCC1)NC(=O)CC1CCCCC1)C(=O)NCc1ccccn1 (stereo partly specified)
1.8 nM | CC[C@H](C)[C@H](NC(=O)[C@@H](C(C)C)C(O)C(O)[C@H](CC1CCCCC1)NC(=O)[C@H](Cc1c[nH]cn1)NC(=O)COc1cccc2ccccc12)C(=O)NCc1ccccn1 (stereo partly specified)
19 nM | CC(C)(C)N(C[C@@H](O)[C@H](Cc1ccccc1)NC(=O)[C@H](CC(N)=O)NC(=O)OCc1ccccc1)C(=O)NCc1ccccc1
11.2 nM | CC[C@H](C)[C@H](NC(=O)[C@@H](C(C)C)C(O)C(O)[C@H](CC(C)C)NC(=O)[C@H](Cc1c[nH]cn1)NC(=O)COc1cccc2ccccc12)C(=O)NCc1ccccn1 (stereo partly specified)
19 nM | CC(C)(C)N(C[C@@H](O)[C@H](Cc1ccccc1)NC(=O)[C@H](CC(N)=O)NC(=O)c1ccc2ccccc2n1)C(=O)NCc1ccncc1
16 nM | COC(=O)[C@@H](NC(=O)[C@H](CC(C)C)NC(=O)[C@@H]1CCCN1C[C@@H](O)[C@H](Cc1ccccc1)NC(=O)[C@H](CC(N)=O)NC(=O)OC(C)(C)C)C(C)C
809 nM | CC[C@H](C)CNC(=O)[C@@H](C(C)C)C(O)C(O)[C@H](Cc1c[nH]cn1)NC(=O)COc1ccccc1 (stereo partly specified)

Compound | IC50
CC(C)(C)OC(=O)[C@@H]1CCCN1CC(O)[C@H](Cc1ccccc1)NC(=O)[C@H](CC(N)=O)NC(=O)OCc1ccccc1 (stereo partly specified) | 140 nM
CC(C)(C)OC(=O)N[C@@H](Cc1ccccc1)C(O)C[C@@H](Cc1ccccc1)C(=O)N[C@H]1c2ccccc2C[C@H]1O (stereo partly specified) | 252 nM
